Laboratory results reported in US20120052555A1, “ENRICHMENT OF LISTERIA SPP” (SAMSUNG TECHWIN CO., LTD., priority 2010, published 2012).
“Also recorded” adds a separate entry of the source.

What was measured:
[1] = system: L. grayi strains; assay: Culture of five L. grayi strains in the presence of antibiotics; format: cell-based, Listeria grayi; settings: 35° C. in Minimal Media A1; 10 mg/L acriflavine, 40 mg/L nalidixic acid, 10 mg/L polymyxin B, 40 mg/L ceftazidime
Description: Separately, five L. grayi strains were cultured at 35° C. in the Minimal Media A1 supplemented separately with 10 mg/L of acriflavine, 40 mg/L of nalidixic acid, 10 mg/L of polymyxin B, 40 mg/L of ceftazidime, and a combination thereof. As a result, the effects of each antibiotic on the growth of L. grayi were trivial. […] The two strains reached maximum cell densities within about 24 hours.

[2] = system: heat-injured Listeria monocytogenes; assay: Recovery of sub-lethally heat-injured Listeria cells on Minimal Medium A1 agar; format: cell-based; settings: cells heated 50° C. 10 minutes; for effect in recovering heat-injured Listeria spp.: Minimal Medium supplemented with the agent
Description: Most Listeria infection cases are associated with pasteurized dairy products. Therefore, the effects of the Minimal Medium A1 on the recovery of sub-lethally heat-injured Listeria spp. were investigated. Overnight-cultured Listeria monocytogenes was serially diluted by 10 folds with PBS. 1 mL of the culture suspension (about 3780 CFU) was cultured at 50° C. for 10 minutes, and 0.1 mL of the culture product was inoculated on the Minimal Medium A1 in agar plate (1.5% agar) in the presence or non-presence of selective agents.
FIG. 4 is a graph illustrating the effects of medium ingredients on the recovery of heat-injured Listeria spp. […] In FIG. 4, “Pyruvate” indicates a Minimal Medium A1 supplemented with sodium pyruvate, “A1-NONE” indicates a Minimal Medium A1 supplemented with none, and “BHI-NONE” indicates a brain heart infusion medium supplemented with none. “Acriflavine,” “Nalidixic acid,” “Polymyxin B,” “Ceftazidime” and “All” denote Minimal Media A supplemented with […], 40 mg/L of nalidixic acid, 10 mg/L of polymyxin B, 40 mg/L of ceftazidime, and all of these antibiotics, respectively.

[3] = system: Listeria monocytogenes; assay: Effect of LiCl concentration in Minimal Medium A1 on cell growth (PCR Cp); format: cell-based; settings: LiCl 1, 3, 5, 7, 9 or 10 g/L in Minimal Medium A1
Description: 300 μL of overnight cultures (about of 3×10^9 CFU/ml) of Listeria monocytogenes in a brain hear infusion (BHI) medium was added into 30 mL of each of the pre-warmed media in 250 ml glass flask. Each mixture was cultured without shaking at 35° C. for 24 hours. Aliquots (20 μL) of the culture products were collected from each container after culture for 1, 2, 3, 4, 5, 6, 7, 8, 9 and 24 hours, respectively. Each culture product was treated with a TZ lysis buffer with 1 mg/ml proteinase K, and incubated at 55° C. for 15 min, 95° C. for 10 min, and cooled at 4° C. for 2 min. Cell lysates were added into the PCR mixture for real-time PCR. The PCR mixture contained forward and reverse primers of SEQ ID NOs. 5 and 6, the probe of SEQ ID No. 7, and the RNase H. The primers and probe were specific to the InlA gene of L. monocytogenes. The 5′ and 3′ ends of the probe were labeled with FAM and Iowa BFQ ([…]), respectively.
The PCR conditions were as follows: UNG activation at 37° C. for 600 seconds; Denaturation at 95° C. for 600 seconds; Denaturation at 95° C. for 15 seconds; and annealing and elongation at 60° C. for 20 seconds (50 cycles). […]

[4] = system: background microflora; assay: Effects of antibiotics on background microflora of ground beef (aerobic plate counts); format: cell-based; settings: 10 g/L ground beef, 35° C., Minimal Media A; among the four antibiotics
Description: In addition, effects of antibiotics on background microflora were investigated. First, 10 g/L of ground beef was cultured at 35° C. in the Minimal Media A supplemented separately with 10 mg/L of acriflavine, 40 mg/L of nalidixic acid, 10 mg/L of polymyxin B, 40 mg/L of ceftazidime, and a combination thereof. The cell concentrations before and after culture were determined based on aerobic plate counts. The aerobic plate counts were determined by inoculating 100 μL of the culture products into Difco® Plate Count agar medium, culturing the mixture at 35° C. for 24 hours, and counting cell colonies
FIG. 3 is a graph illustrating the effects of antibiotics on background microflora. Referring to FIG. 3, the growth of the background microfluora was inhibited about 100 times more strongly when the four antibiotics were added together, than when they were used individually.

CC(C)(O/N=C(\C(=O)N[C@@H]1C(=O)N2C(C(=O)[O-])=C(C[n+]3ccccc3)CS[C@H]12)c1csc(N)n1)C(=O)O [ceftazidime]
effect on the growth of L. grayi [1]: trivial | effect in recovering heat-injured Listeria spp. [2]: positive effects

polymyxin B
effect on the growth of L. grayi [1]: trivial | effect in recovering heat-injured Listeria spp. [2]: positive effects

acriflavine
effect on the growth of L. grayi [1]: trivial | effect in recovering heat-injured Listeria spp. [2]: positive effects

CC(=O)C(=O)[O-].[Na+] [sodium pyruvate]
recovery rate of heat-injured Listeria spp. ([2]; 10 g/L of sodium pyruvate compared to 10 mM of MgCl2): recovery rate was improved | effect in recovering heat-injured Listeria spp. [2]: positive effects

[Cl-].[Li+] [LiCl, lithium chloride]
effect of LiCl concentration on Cp values / cell growth [3]: high LiCl concentration helped recovery of Listeria; also recorded: the smaller the Cp values and the more the cell growth was enhanced

CCn1cc(C(=O)O)c(=O)c2ccc(C)nc21 [nalidixic acid]
effect on the growth of L. grayi [1]: trivial | inhibitory effect on cell growth of background microflora [4]: strongest inhibitory effect on cell growth
